Values quoted from earlier work, collected in US6627208B2, “Biocidal material with improved activity” (Eastman Kodak Company, priority 1999, dated 2003).
Converted amounts (≈) assume the structure as drawn.

Details: limit of solubility

solubility in water: 5 mg/L (≈ 17.7 µM)
SMILES: CCCCCCCCn1sc(Cl)c(Cl)c1=O [Kathon 287T®]
